Laboratory results: article PMC3265452 (PLoS Neglected Tropical Diseases, 2012)
Where a name gives a salt, the structure may show the parent alone.

What follows are compounds tested against AaDOP2 (Aedes aegypti, UniProt H6D5H2) (assay: AaDOP2 antagonist screen of the LOPAC1280 library (HEK-CRELuc-Aadop2 cells, luminescence)). Details: not given.
AaDOP2, sequence (H6D5H2 1-476): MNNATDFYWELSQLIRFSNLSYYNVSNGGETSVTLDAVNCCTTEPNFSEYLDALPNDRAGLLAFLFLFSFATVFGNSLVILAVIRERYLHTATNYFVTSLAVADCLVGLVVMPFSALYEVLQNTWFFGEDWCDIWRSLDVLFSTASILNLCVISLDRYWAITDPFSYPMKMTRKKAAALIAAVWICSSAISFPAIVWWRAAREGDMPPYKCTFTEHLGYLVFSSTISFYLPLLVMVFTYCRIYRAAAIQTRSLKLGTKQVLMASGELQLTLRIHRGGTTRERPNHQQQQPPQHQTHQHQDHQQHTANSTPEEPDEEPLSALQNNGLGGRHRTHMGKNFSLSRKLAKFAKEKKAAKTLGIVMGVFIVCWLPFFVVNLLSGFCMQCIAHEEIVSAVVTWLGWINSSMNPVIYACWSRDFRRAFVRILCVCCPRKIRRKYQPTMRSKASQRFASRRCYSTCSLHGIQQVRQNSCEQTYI
Format: cell-based
For CCC1(C)CC(=O)NC1=O (centres unmarked) [Compound 494, Ethosuximide], the “Compound effect (percent receptor signaling in presence of test compound, relative lux units relative to the SCH23390 control)” value was 146. For CC(=O)[C@H]1CC[C@H]2[C@@H]3CC[C@H]4C[C@H](O)CC[C@]4(C)[C@H]3CC[C@]12C [Compound 989, 5alpha-Pregnan-3alpha-ol-20-one], the “Compound effect (percent receptor signaling in presence of test compound, relative lux units relative to the SCH23390 control)” value was 73. For CSc1ccc2c(c1)C(N1CCN(C)CC1)Cc1ccccc1S2 (centres unmarked) [Compound 825, Methiothepin mesylate], the “Compound effect (percent receptor signaling in presence of test compound, relative lux units relative to the SCH23390 control)” value was 1. In the case of CC(C)CN(C)c1nc(N)c(C(=O)N=C(N)N)nc1Cl [Compound 61, 5-(N-Methyl-N-isobutyl)amiloride], the “Compound effect (percent receptor signaling in presence of test compound, relative lux units relative to the SCH23390 control)” value is reported as 72. In the case of CC(=O)O[C@H]1C[C@@H]2CC[C@@H]3[C@H](CC[C@@]4(C)[C@H]3C[C@H]([N+]3(C)CCCCC3)[C@@H]4OC(C)=O)[C@@]2(C)C[C@@H]1[N+]1(C)CCCCC1 [Compound 929, Pancuronium bromide], the “Compound effect (percent receptor signaling in presence of test compound, relative lux units relative to the SCH23390 control)” value is reported as 96. For O=S(=O)(O)C1CCNCC1 [Compound 991, Piperidine-4-sulphonic acid], the “Compound effect (percent receptor signaling in presence of test compound, relative lux units relative to the SCH23390 control)” value was 105. For C[C@@H]1O[C@@H](O[C@H]2C[C@@H](O)[C@]3(CO)[C@H]4[C@H](O)C[C@]5(C)[C@@H](C6=CC(=O)OC6)CC[C@]5(O)[C@@H]4CC[C@]3(O)C2)[C@H](O)[C@H](O)[C@H]1O [Compound 903, Ouabain], the “Compound effect (percent receptor signaling in presence of test compound, relative lux units relative to the SCH23390 control)” value was 50. For Cn1ccnc1 [Compound 804, 1-Methylimidazole], the “Compound effect (percent receptor signaling in presence of test compound, relative lux units relative to the SCH23390 control)” value was 100. O=C(O)c1nn(Cc2ccc(Cl)cc2Cl)c2ccccc12 [Compound 704, Lonidamine] was tested, and the “Compound effect (percent receptor signaling in presence of test compound, relative lux units relative to the SCH23390 control)” value was 90. With COc1ccc(C(=O)N2CCCC2=O)cc1 [Compound 116, Aniracetam] the “Compound effect (percent receptor signaling in presence of test compound, relative lux units relative to the SCH23390 control)” value was 101. In the case of Br.C=CCN1CCc2cc(O)c(O)cc2C(c2ccccc2)C1 (racemic) [Compound 1139, (±)-SKF 38393, N-allyl-, hydrobromide], the “Compound effect (percent receptor signaling in presence of test compound, relative lux units relative to the SCH23390 control)” value is reported as 70. For O=c1onc2cnc3ccccc3n12 [Compound 904, ODQ], the “Compound effect (percent receptor signaling in presence of test compound, relative lux units relative to the SCH23390 control)” value was 98. N.N.N.N.N.N.N.N.N.N.N.N.N.N.[Cl-].[Cl-].[Cl-].[Cl-].[Cl-].[Cl-].[O-2].[O-2].[Ru+3].[Ru+3].[Ru+4] [Compound 1044, Ruthenium red] was tested, and the “Compound effect (percent receptor signaling in presence of test compound, relative lux units relative to the SCH23390 control)” value was 61. NCCCNCCSP(=O)(O)O [Compound 67, Amifostine] was tested, and the “Compound effect (percent receptor signaling in presence of test compound, relative lux units relative to the SCH23390 control)” value was 111. In the case of CCn1cc(C(=O)O)c(=O)c2cc3c(cc21)OCO3 [Compound 896, Oxolinic acid], the “Compound effect (percent receptor signaling in presence of test compound, relative lux units relative to the SCH23390 control)” value is reported as 108. In the case of CCn1c(=O)c2[nH]c(-c3ccccc3)nc2n(CC)c1=O [Compound 117, 1,3-Diethyl-8-phenylxanthine], the “Compound effect (percent receptor signaling in presence of test compound, relative lux units relative to the SCH23390 control)” value is reported as 105. In the case of CN1CC[C@]2(CCN3CCc4c(oc5ccccc45)[C@@H]3C2)N(C)C1=O [Compound 796, MK-912], the “Compound effect (percent receptor signaling in presence of test compound, relative lux units relative to the SCH23390 control)” value is reported as 73. With Cl.N[C@@H](CCl)C(=O)O [Compound 315, beta-Chloro-L-alanine hydrochloride] the “Compound effect (percent receptor signaling in presence of test compound, relative lux units relative to the SCH23390 control)” value was 99. For CC[N+](C)(CC)CC(=O)Nc1c(C)cccc1C.[Cl-] [Compound 695, Lidocaine N-methyl hydrochloride], the “Compound effect (percent receptor signaling in presence of test compound, relative lux units relative to the SCH23390 control)” value was 92. For CNCCc1c[nH]c2ccc(O)cc12.O=C(O)C(=O)O [Compound 739, N-omega-Methyl-5-hydroxytryptamine oxalate salt], the “Compound effect (percent receptor signaling in presence of test compound, relative lux units relative to the SCH23390 control)” value was 115. In the case of O=c1[nH]c2cc(C(F)(F)F)ccc2n1-c1cc(C(F)(F)F)ccc1O [Compound 890, NS-1619], the “Compound effect (percent receptor signaling in presence of test compound, relative lux units relative to the SCH23390 control)” value is reported as 86. O=c1onc2n1-c1cc(Br)ccc1OC2 [Compound 893, NS 2028] was tested, and the “Compound effect (percent receptor signaling in presence of test compound, relative lux units relative to the SCH23390 control)” value was 98. With C=CC[C@H](N)C(=O)O [Compound 87, L-allylglycine] the “Compound effect (percent receptor signaling in presence of test compound, relative lux units relative to the SCH23390 control)” value was 107. With O=C(NCCNCC(O)COc1ccc(O)cc1)N1CCOCC1 (centres unmarked) [Compound 1270, Xamoterol hemifumarate] the “Compound effect (percent receptor signaling in presence of test compound, relative lux units relative to the SCH23390 control)” value was 112. With Oc1ccc2c3c1O[C@H]1c4oc5ccccc5c4C[C@@]4(O)[C@@H](C2)N(CC2CC2)CC[C@]314 [Compound 886, Naltriben methanesulfonate] the “Compound effect (percent receptor signaling in presence of test compound, relative lux units relative to the SCH23390 control)” value was 102. With CC(=O)Nc1nnc(S(N)(=O)=O)s1 [Compound 68, Acetazolamide] the “Compound effect (percent receptor signaling in presence of test compound, relative lux units relative to the SCH23390 control)” value was 106. CCCCCCCCCCCCCCSCC(=O)O [Compound 1156, Tetradecylthioacetic acid] was tested, and the “Compound effect (percent receptor signaling in presence of test compound, relative lux units relative to the SCH23390 control)” value was 101. Oc1cc(-c2ccccc2)nc2nc(Cl)ccc12 [Compound 279, 7-Chloro-4-hydroxy-2-phenyl-1,8-naphthyridine] was tested, and the “Compound effect (percent receptor signaling in presence of test compound, relative lux units relative to the SCH23390 control)” value was 100. For Cc1c(OCC(F)(F)F)ccnc1C[S+]([O-])c1nc2ccccc2[nH]1 (centres unmarked) [Compound 711, Lansoprazole], the “Compound effect (percent receptor signaling in presence of test compound, relative lux units relative to the SCH23390 control)” value was 91. For O=c1nc2[nH]c3ccccc3nc-2c(=O)[nH]1 [Compound 144, Alloxazine], the “Compound effect (percent receptor signaling in presence of test compound, relative lux units relative to the SCH23390 control)” value was 104. CCCN(CCC)[C@H]1CCc2c(F)ccc(O)c2C1.Cl [Compound 1244, S(-)-UH-301 hydrochloride] was tested, and the “Compound effect (percent receptor signaling in presence of test compound, relative lux units relative to the SCH23390 control)” value was 90. In the case of O=c1[nH]c2ccccc2c2ccccc12 [Compound 988, 6(5H)-Phenanthridinone], the “Compound effect (percent receptor signaling in presence of test compound, relative lux units relative to the SCH23390 control)” value is reported as 90. In the case of CN1C(=O)CC[C@H]1c1cccnc1 [Compound 277, (-)-Cotinine], the “Compound effect (percent receptor signaling in presence of test compound, relative lux units relative to the SCH23390 control)” value is reported as 96. CN1[C@@H]2CC[C@H]1C[C@@H](OC(=O)C(CO)c1ccccc1)C2 (some centres unmarked) [Compound 13, Atropine sulfate] was tested, and the “Compound effect (percent receptor signaling in presence of test compound, relative lux units relative to the SCH23390 control)” value was 78. In the case of CN1CCc2cc3c(cc2[C@H]1[C@@H]1OC(=O)c2c1ccc1c2OCO1)OCO3 [Compound 192, (+)-Bicuculline], the “Compound effect (percent receptor signaling in presence of test compound, relative lux units relative to the SCH23390 control)” value is reported as 94. For N[C@H](C(=O)O)c1cc(O)no1 (racemic) [Compound 642, (±)-Ibotenic acid], the “Compound effect (percent receptor signaling in presence of test compound, relative lux units relative to the SCH23390 control)” value was 105. With O=C(O)CNC(=O)C(CS)Cc1ccccc1 (racemic) [Compound 1186, DL-Thiorphan] the “Compound effect (percent receptor signaling in presence of test compound, relative lux units relative to the SCH23390 control)” value was 107. CCCOc1ccccc1-c1nc2nn[nH]c2c(=O)[nH]1 [Compound 1276, Zaprinast] was tested, and the “Compound effect (percent receptor signaling in presence of test compound, relative lux units relative to the SCH23390 control)” value was 115. With CN1CCN(C2Cc3ccccc3Sc3ccc(Cl)cc32)CC1.O=C(O)/C=C\C(=O)O (racemic) [Compound 913, (±)-Octoclothepin maleate] the “% of the SCH23390 effect (percent inhibition of receptor response relative to the SCH23390 control)” value was 97% and the “Compound effect (percent receptor signaling in presence of test compound, relative lux units relative to the SCH23390 control)” value was 3. In the case of CCCCc1ccc(C(=O)O)nc1 [Compound 525, Fusaric acid], the “Compound effect (percent receptor signaling in presence of test compound, relative lux units relative to the SCH23390 control)” value is reported as 152. COc1cc2ncnc(Nc3ccc(O)cc3)c2cc1OC [Compound 1260, WHI-P131] was tested, and the “Compound effect (percent receptor signaling in presence of test compound, relative lux units relative to the SCH23390 control)” value was 90. For CC1=C(/C=C/C(C)=C/C=C/C(C)=C/C(=O)O)C(C)(C)CCC1 [Compound 1043, Retinoic acid], the “Compound effect (percent receptor signaling in presence of test compound, relative lux units relative to the SCH23390 control)” value was 106. For O=C(O)CN(CCOCCOCCN(CC(=O)O)CC(=O)O)CC(=O)O [Compound 492, Ethylene glycol-bis(2-aminoethylether)-N,N,N',N'-tetraacetic acid], the “Compound effect (percent receptor signaling in presence of test compound, relative lux units relative to the SCH23390 control)” value was 121. CN(N=O)c1cc(O)ccc1O [Compound 417, Dephostatin] was tested, and the “Compound effect (percent receptor signaling in presence of test compound, relative lux units relative to the SCH23390 control)” value was 111.

Same assay, conditions: 10 µM compound, 300 nM dopamine, 2 hr; hit = compound effect <20
For CC(C)C1C2CCC(C2)C1N.Cl (centres unmarked) [Compound 147, AGN 192403 hydrochloride], the “Compound effect (percent receptor signaling in presence of test compound, relative lux units relative to the SCH23390 control)” value was 109%. With Cc1nc(N=Nc2ccc(S(=O)(=O)O)cc2S(=O)(=O)O)c(COP(=O)(O)O)c(C=O)c1O [Compound 1018, PPADS] the “Compound effect (percent receptor signaling in presence of test compound, relative lux units relative to the SCH23390 control)” value was 103%. NC[C@H](O)c1ccc(O)c(O)c1.O=C(O)C(O)C(O)C(=O)O (racemic) [Compound 22, (±)-Norepinephrine (+)bitartrate] was tested, and the “Compound effect (percent receptor signaling in presence of test compound, relative lux units relative to the SCH23390 control)” value was 102%. In the case of NC(N)=NC(=O)c1nc(Cl)c(N2CCCCCC2)nc1N [Compound 107, 5-(N,N-hexamethylene)amiloride], the “Compound effect (percent receptor signaling in presence of test compound, relative lux units relative to the SCH23390 control)” value is reported as 82%. For Br.Br.N=C(N)SCCc1cccc(CCSC(=N)N)c1 [Compound 977, 1,3-PBIT dihydrobromide], the “Compound effect (percent receptor signaling in presence of test compound, relative lux units relative to the SCH23390 control)” value was 117%. Cl.Nc1ccn([C@@H]2O[C@H](CO)[C@@H](O)[C@@H]2O)c(=O)n1 [Compound 288, Cytosine-1-beta-D-arabinofuranoside hydrochloride] was tested, and the “Compound effect (percent receptor signaling in presence of test compound, relative lux units relative to the SCH23390 control)” value was 92%. For CCCCN1CCC(COC(=O)c2cc(Cl)c(N)c3c2OCCO3)CC1.Cl [Compound 1097, SB 204070 hydrochloride], the “Compound effect (percent receptor signaling in presence of test compound, relative lux units relative to the SCH23390 control)” value was 122%.

Same assay, conditions: read-out: % of the SCH23390 effect (percent inhibition of receptor response relative to the SCH23390 control)
CSc1ccc2c(c1)C(N1CCN(C)CC1)Cc1ccccc1S2 (centres unmarked) [Compound 825, Methiothepin mesylate] gave an inhibition at 10 µM of 99%.
